Reference: patent US20100130579A1, “CANCER THERAPY” (Georgetown University, priority 2006, published 2010)

Assays:
cyclin D1 [1] = assay: Immunofluorescence staining of cyclin D1 localization; format: cell-based, human; settings: PC3 cells, 2 μg/ml, 2 days
Description: FIGS. 3A-3C. Mahanine down-regulates cyclin D1 protein in prostate cancer cells. FIG. 3A and FIG. 3B: Western blots showing cyclin D1 protein levels in PC3 (A) and LNCaP (B) cells treated with 0, 1, 2 and 3 μg/ml mahanine for 3 days. Protein lysates (50 μg) from PC3 and LNCaP cells were resolved on 12% SDS-PAGE, and immunoblots were probed with antibodies to cyclin D1. All immunoblots were re-probed with β-actin antibodies to ensure equal loading. Representative photographs from an experiment that was repeated thrice. Quantitative analyses of relative levels of cyclin D1 proteins are shown on the right panels. […] FIG. 3C: PC3 cells were plated on chamber slides and treated with or without 2 μg/ml mahanine for 2 days. Cells were then fixed in methanol, incubated with cyclin D1 antibody overnight, Alexi Fluor-conjugated secondary antibodies for 1 hour and counter stained with propidium iodide (PI). Slides were then mounted and examined using a fluorescence microscope. Photographs were taken at the same magnification (×20) and then transported to Photoshop. Representative photographs from an experiment that was repeated twice.
Immunofluorescence staining: PC3 cells were plated onto chamber slides and treated with vehicle or mahanine (2 μg/ml) for 2 days. The cells were fixed in methanol, air-dried, and re-hydrated with PBS. […]

caspase-3 = settings: PC3 cells; cited from earlier work
cyclin B1 = assay: RT-PCR of cyclin B1 mRNA in prostate cancer cells; format: cell-based, human; settings: PC3 or LNCaP cells, mahanine treatment
Description: (§1) FIG. 5. RASSF1A down-regulates cyclin D1 expression in prostate cancer cells but not other cyclins. […] RNA was extracted, and RT-PCR assays were performed to detect RASSF1A, cyclin A1, B1, D1, E1 and GAPDH mRNAs. Representative photograph from an experiment that was repeated thrice. Quantitative estimations of relative levels of cyclin D1 and RASSF1A mRNAs were determined by densitometric measurements of RT-PCR gels from three independent experiments after normalization with GAPDH.
(§2) Genes of interest were amplified using 500 ng of total RNA reverse-transcribed to cDNA using a Superscript II kit (Invitrogen) with random hexamers. Human-specific primers were designed using the Primer Quest program and purchased from Integrated DNA Technologies, Inc (Coralville, Iowa). […] After amplification, PCR products were separated on 1.5% agarose gels and visualized by ethidium bromide fluorescence using the Fuji LAS-1000 Imager. […] Band intensities were quantified by using ImageJ software (NIH, Bethesda, Md.).

cyclin E1 = assay: RT-PCR of cyclin E1 mRNA in prostate cancer cells; format: cell-based, human; settings: PC3 or LNCaP cells, mahanine treatment
Description: as §1, §2

cyclin D1 [2] = assay: RT-PCR of cyclin D1 mRNA in cancer cells; format: cell-based, human

For CC(C)=CCC[C@@]1(C)C=Cc2c(c(C)cc3c2[nH]c2cc(O)ccc23)O1 [mahanine], the “nuclear localization of cyclin D1” value (cyclin D1 [1]) is given as “reduced and/or prevented the nuclear localization”, the “caspase-3 cleavage and activation” value (caspase-3) is given as “greatly increased caspase-3 cleavage and activation” and the “cyclin B1 expression (RT-PCR)” value (cyclin B1) is given as “did not alter the expression”. For the same compound, the “cyclin E1 expression (RT-PCR)” value (cyclin E1) was “did not alter the expression”, the “cyclin D1 expression (RT-PCR)” value (cyclin D1 [2]; PC3 cells, 1, 2 and 3 μg/ml, 3 days) was “down-regulated the expression of cyclin D1 in PC3 cells in a dose-dependent manner” and the “cyclin D1 expression (RT-PCR)” value (cyclin D1 [2]; epidermoid (A431), lung (A549), pancreatic (ASPC-1), colon (HT-29), breast (MCF7) and ovarian (SKOV-3) cancer cells, 2 and 3 μg/ml, 2 days) was “down regulation of cyclin D1”.
